≈ marks a conversion by molar mass, not a printed value.
Columns and labels:
[1] = Half life in human hepatocytes at 1 uM by LC-MS/MS analysis; assay type: ADME, cell-based, Hepatocyte
[2] = target: Peptidyl-prolyl cis-trans isomerase A (Homo sapiens, UniProt P62937); test: Inhibition of recombinant GST-tagged CypA (unknown origin)/HCV Con1 NS5A-His interaction after 16 hrs by ELISA
[3] = Selectivity index, ratio of CC50 for human Huh5-2 cells to EC50 for Hepatitis C virus genotype 1b I389luc-ubi-neo/NS3-3'/5.1 subgenomic replicon infected in human Huh5-2 cells; assay type: toxicity, cell-based, Huh-5-2; settings: read-out: Ratio CC50/EC50
in vitro = settings: mouse, liver microsomes
Description: Half life in mouse liver microsomes at 1 uM by LC-MS/MS analysis

[4] = Cytostatic activity against human Huh5-2 cells assessed as decrease in cell proliferation after 3 days by MTS method; assay type: ADME, cell-based, Huh-5-2
Hepatitis C virus [5] = test: Antiviral activity against Hepatitis C virus genotype 1b I389luc-ubi-neo/NS3-3'/5.1 subgenomic replicon infected in human Huh5-2 cells after 4 days by luciferase assay; assay type: functional, cell-based, Hepacivirus hominis; settings: Huh-5-2, 96 h
[6] = Half life in human liver microsomes at 1 uM by LC-MS/MS analysis; assay type: ADME
[7] = Solubility of the compound in phosphate buffered saline at pH 7.4 after 4 hrs by LC-MS/MS analysis
PBMC = test: Immunosuppressive activity in human PBMC isolated from two individuals assessed as inhibition of proliferation using [3H]thymidine by mixed lymphocyte reaction assay; assay type: cell-based
Hepatitis C virus [8] = test: Antiviral activity against Hepatitis C virus genotype 1b Con1 infected in human Huh7 cells assessed as decrease in subgenomic RNA level after 72 hrs by RT-PCR analysis; assay type: functional, cell-based, Hepacivirus hominis; settings: genotype 1b Con1, Huh-7, 72 h
Hepatitis C virus [9] = test: Antiviral activity against Hepatitis C virus genotype 2a JFH-1 infected in human Huh7 cells assessed as decrease in subgenomic RNA level after 72 hrs by RT-PCR analysis; assay type: functional, cell-based, Hepacivirus hominis; settings: genotype 2a JFH-1, Huh-7, 72 h
Hepatitis C virus [10] = test: Antiviral activity against Hepatitis C virus genotype 1a H77 infected in human Huh7 cells assessed as decrease in subgenomic RNA level after 72 hrs by RT-PCR analysis; assay type: functional, cell-based, Hepacivirus hominis; settings: genotype 1a H77, Huh-7, 72 h

Sequence of Peptidyl-prolyl cis-trans isomerase A (P62937 whole entry): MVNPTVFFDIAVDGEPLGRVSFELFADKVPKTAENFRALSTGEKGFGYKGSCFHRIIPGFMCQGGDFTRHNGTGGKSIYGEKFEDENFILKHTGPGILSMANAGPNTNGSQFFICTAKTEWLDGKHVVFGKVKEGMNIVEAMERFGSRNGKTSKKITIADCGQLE

Row | SMILES | half-life at 1 µM [1] [min] | IC50 [2] [µM] | selectivity ratio [3] | half-life at 1 µM (in vitro) [min] | CC50 at 72 h [4] [µM] | EC50 (Hepatitis C virus [5]) [µM] | EC90 (Hepatitis C virus [5]) [µM] | half-life at 1 µM [6] [min] | solubility at 4 h [7] [µM] | IC50 (PBMC) [µM] | EC50 (Hepatitis C virus [8]) [µM] | EC50 (Hepatitis C virus [9]) [µM] | EC50 (Hepatitis C virus [10]) [µM]
1 | CC(=O)CC[C@H]1C(=O)N[C@@H](C(C)C)C(=O)N[C@@H](Cc2cccc(O)c2)C(=O)N2CCCC(N2)C(=O)O[C@H](/C(C)=C/C=C/C(=O)N(CC(C)C)CC(C)C)C/C=C/C=C/[C@H](O)[C@H](C)[C@H]1O (stereo not given in full) | 98 | 0.39 | 6.8 | 2.5 | 2.1 | 0.309 | 1.1 | 21.6 |  |  |  |  | 
2 | CC(=O)CC[C@H]1C(=O)N[C@@H](C(C)C)C(=O)N[C@@H](Cc2cccc(O)c2)C(=O)N2CCCC(N2)C(=O)O[C@H](/C(C)=C/C=C/C(=O)Nc2cccnc2)C/C=C/C=C/[C@H](O)[C@H](C)[C@H]1O (stereo in doubt) | 116 | 0.46 | > 40 | 3.3 | > 100 | 2.48 | 5.41 | 7.5 | 18 (≈ 15.4 µg/mL) |  |  |  | 
3 | CC(=O)CC[C@H]1C(=O)N[C@@H](C(C)C)C(=O)N[C@@H](Cc2cccc(O)c2)C(=O)N2CCCC(N2)C(=O)O[C@H](/C(C)=C/C=C/C(=O)N(C)C2CCCCC2)C/C=C/C=C/[C@H](O)[C@H](C)[C@H]1O (stereo not given in full) | > 240 | 0.42 | 446 | 1.9 | 66 | 0.148 | 1.9 | 3.3 | 48 (≈ 42.1 µg/mL) |  |  |  | 
4 | CC(=O)CC[C@H]1C(=O)N[C@@H](C(C)C)C(=O)N[C@@H](Cc2cccc(O)c2)C(=O)N2CCCC(N2)C(=O)O[C@H](/C(C)=C/C=C/C(=O)Nc2ccc(-c3ccccc3)cc2)C/C=C/C=C/[C@H](O)[C@H](C)[C@H]1O (stereo in doubt) | > 240 | 0.52 | > 481 | 1.3 | > 100 | 0.208 | 1.15 | 2.3 | 2 (≈ 1.86 µg/mL) |  |  |  | 
5 | CC(=O)CC[C@H]1C(=O)N[C@@H](C(C)C)C(=O)N[C@@H](Cc2cccc(O)c2)C(=O)N2CCCC(N2)C(=O)O[C@H](/C(C)=C/C=C/C(=O)N(C)C)C/C=C/C=C/[C@H](O)[C@H](C)[C@H]1O (stereo not given in full) | 128 | 0.63 | > 287 | 24.7 | > 100 | 0.349 | 62 | 48 | > 100 |  |  |  | 
6 | CC(=O)CC[C@H]1C(=O)N[C@@H](C(C)C)C(=O)N[C@@H](Cc2cccc(O)c2)C(=O)N2CCCC(N2)C(=O)O[C@H](/C(C)=C/C=C/C(=O)N(C)c2ccccn2)C/C=C/C=C/[C@H](O)[C@H](C)[C@H]1O (stereo not given in full) | 150 | 0.33 | > 50 | 9.8 | > 100 | 2.01 | 11.5 | 19.1 | 17 (≈ 14.8 µg/mL) |  |  |  | 
7 | CC(=O)CC[C@H]1C(=O)N[C@@H](C(C)C)C(=O)N[C@@H](Cc2cccc(O)c2)C(=O)N2CCCC(N2)C(=O)O[C@H](/C(C)=C/C=C/C(=O)N2CCOCC2)C/C=C/C=C/[C@H](O)[C@H](C)[C@H]1O (stereo not given in full) | > 240 | 0.33 | > 72 | 18 |  | 1.4 | 7.4 | 50.3 | > 100 |  |  |  | 
8 | C/C=C/C[C@@H](C)[C@@H](O)[C@H]1C(=O)N[C@@H](CC)C(=O)N(C)[C@H](C)C(=O)N(CC)[C@@H](C(C)C)C(=O)N[C@@H](C(C)C)C(=O)N(C)[C@@H](CC(C)C)C(=O)N[C@@H](C)C(=O)N[C@H](C)C(=O)N(C)[C@@H](CC(C)C)C(=O)N(C)[C@@H](CC(C)C)C(=O)N(C)[C@@H](C(C)C)C(=O)N1C [ALISPORIVIR] |  |  |  |  |  |  |  |  |  | 0.84 |  |  | 
9 | CC(=O)CC[C@H]1C(=O)N[C@@H](C(C)C)C(=O)N[C@@H](Cc2cccc(O)c2)C(=O)N2CCCC(N2)C(=O)O[C@H](/C(C)=C/C=C/C(=O)NC(C)C)C/C=C/C=C/[C@H](O)[C@H](C)[C@H]1O (stereo in doubt) | 59 | 0.38 | > 179 | 6.4 | > 100 | 0.56 | 4.6 | 16.9 | 12 (≈ 9.86 µg/mL) |  |  |  | 
10 | CCC[C@H](NC(=O)[C@@H]1[C@H]2CCC[C@H]2CN1C(=O)[C@@H](NC(=O)[C@@H](NC(=O)c1cnccn1)C1CCCCC1)C(C)(C)C)C(=O)C(=O)NC1CC1 |  |  | > 315 |  | > 74 | 0.235 | 0.838 |  |  |  | 0.72 |  | 
11 | CC(=O)CC[C@H]1C(=O)N[C@@H](C(C)C)C(=O)N[C@@H](Cc2cccc(O)c2)C(=O)N2CCCC(N2)C(=O)O[C@H](/C(C)=C/C=C/C(=O)Nc2ccncc2)C/C=C/C=C/[C@H](O)[C@H](C)[C@H]1O (stereo not given in full) | > 240 | 0.55 | > 12.4 | 15.2 | > 100 | 8.06 | 31.9 | 32.2 | 15 (≈ 12.9 µg/mL) |  |  |  | 
12 | CNC(=O)/C=C/C=C(\C)[C@@H]1C/C=C/C=C/[C@H](O)[C@H](C)[C@@H](O)[C@@H](CCC(C)=O)C(=O)N[C@@H](C(C)C)C(=O)N[C@@H](Cc2cccc(O)c2)C(=O)N2CCCC(N2)C(=O)O1 (stereo in doubt) | 192 | 0.5 | > 13 | 22.5 | > 100 | 8 | 60.2 | 37.2 | > 100 |  |  |  | 
13 | CC(=O)CC[C@H]1C(=O)N[C@@H](C(C)C)C(=O)N[C@@H](Cc2cccc(O)c2)C(=O)N2CCCC(N2)C(=O)O[C@H](/C(C)=C/C=C/C(=O)NC2CCCCC2)C/C=C/C=C/[C@H](O)[C@H](C)[C@H]1O (stereo in doubt) | > 240 | 0.45 | > 298 | 2.7 | > 100 | 0.336 | 4.23 | 6.5 | 29 (≈ 25 µg/mL) |  |  |  | 
14 | C/C=C/C[C@@H](C)[C@@H](O)[C@H]1C(=O)N[C@@H](CC)C(=O)N(C)CC(=O)N(C)[C@@H](CC(C)C)C(=O)N[C@@H](C(C)C)C(=O)N(C)[C@@H](CC(C)C)C(=O)N[C@@H](C)C(=O)N[C@H](C)C(=O)N(C)[C@@H](CC(C)C)C(=O)N(C)[C@@H](CC(C)C)C(=O)N(C)[C@@H](C(C)C)C(=O)N1C [CYCLOSPORINE] |  |  |  |  |  | 0.306 | 1 |  |  |  | 0.137 | 0.455 | 0.198
15 | C=CCNC(=O)/C=C/C=C(\C)[C@@H]1C/C=C/C=C/[C@H](O)[C@H](C)[C@@H](O)[C@@H](CCC(C)=O)C(=O)N[C@@H](C(C)C)C(=O)N[C@@H](Cc2cccc(O)c2)C(=O)N2CCCC(N2)C(=O)O1 (stereo in doubt) | 139 | 0.36 | 30 | 10.6 | 48 | 1.6 | 8.5 | 23.9 |  |  |  |  | 
16 | CCN(CC)C(=O)/C=C/C=C(\C)[C@@H]1C/C=C/C=C/[C@H](O)[C@H](C)[C@@H](O)[C@@H](CCC(C)=O)C(=O)N[C@@H](C(C)C)C(=O)N[C@@H](Cc2cccc(O)c2)C(=O)N2CCCC(N2)C(=O)O1 (stereo not given in full) | 94 | 0.35 | > 490 | 8.4 | > 100 | 0.204 | 1.2 | 16.8 | > 100 |  |  |  | 

From ChEMBL document CHEMBL3217729, “Sangamides, a new class of cyclophilin-inhibiting host-targeted antivirals for treatment of HCV infection” (Medchemcomm, 2012)
